Measurements from EP0819124B1, “AZOLE COMPOUNDS WITH ANTIMYCOTIC ACTIVITY FOR HUMAN AND VETERINARY USE” (ZAMBON GROUP S.p.A., priority 1995, dated 1996).
Converted amounts (≈) assume the structure as drawn. Like-named read-outs stand apart in the source and are kept apart here.

Experiments:
C. albicans 1040 = assay: In vitro antimycotic activity, macromethod of scalar broth dilutions (YNB); format: cell-based, Candida albicans
Protocol: (§1) The determination of the activity inhibiting the growth of mycetes was evaluated by the macromethod of scalar brothdilutions in geometrical progression (M.R. McGinnis and M.G. Rinaldi, "Antifungal drugs: mechanisms of action, drug resistance, susceptibility testing and assay of activity in biological fluids", in Antibiotic in Laboratory Medicine, Ed. V. Lorian, Baltimora 1991).
(§2) As culture media Yeast Nitrogen Base broth (YNB) and Sabouraud Dextrose broth (SDB) were used for yeasts and moulds, respectively.
(§3) The results obtained in SDB (after incubation at 28°C for 7 days) were expressed as minimum inhibiting concentrations (MIC) the growth of mycetes, while those obtained in YNB (after incubation at 35°C for 48 hours) were expressed as concentrations able to inhibit at 50% (IC50) the growth of the yeast.
(§4) As reference compounds Fluconazole, Itraconazole and Genaconazole were used.

C. neoformans = assay: as above; format: cell-based; conditions: Cryptococcus neoformans
Protocol: as §1, §2, §3, §4

T.mentagrophytes = assay: In vitro antimycotic activity, macromethod of scalar broth dilutions (SDB); format: cell-based, Trychophyton mentagrophytes; conditions: Trichophyton mentagrophytes, 168 h
Protocol: as §1, §2, §3, §4

A. fumigatus = assay: as above; format: cell-based; conditions: Aspergillus fumigatus, 168 h
Protocol: as §1, §2, §3, §4

Candida albicans 1040 = assay: In vivo antimycotic activity in mice experimentally infected by C. albicans, oral route; design: species or system Charles River white mice (CD1 strain); conditions: for PD50 at 8th day / PD50 at 14th day: oral route, probits analysis; for PD50 at 8th day: 8 days from the infection; for PD50 at 14th day: 14 days from the infection
Protocol: Charles River white mice (CD1 strain) weighing from 23 to 25 g, normo-feeded with standard diet and water ad libitum were used.
A suspension (0.2 ml containing 2.5x10^7 cells/ml) of Candida albicans 1040 in physiologic solution was injected to each animal by venous route. Immediately after the infection and after 4, 24 and 48 hours, the animals received by oral route (in arabic gum at 2%) doses increasing in a geometrical progression of the compound to be tested. The infected group was used as control.
The observation of the mortality of the mice was prolonged up to 14 days. From the number of survived animals for each concentration the average protective dose (DP50) was calculated by probits analysis (L.Lison - "Statistica applicata alla biologia sperimentale. La programmazione dell'esperimento e l'analisi dei risultati" - Casa Editrice Ambrosiana, 1961).
Compounds R1 and R2 were used as comparative compounds.
Fluconazole and Itraconazole were used as reference compounds.

C. krusei (2) = assay: In vitro antimycotic activity, strain panel (Table 2); format: cell-based, Candida krusei; conditions: Pichia kudriavzevii; C. krusei, 2 strains; range printed under head MIC50 MIC90; read-out: MIC
Protocol: as §1, §2, §3, §4
(§5) Note to the table: MIC expressed as µg/ml Within brackets the number of tested strains Table 3

C. albicans (7) = assay: as above; format: cell-based; conditions: Candida albicans, C. albicans, 7 strains; for MIC50: read-out: MIC50; for MIC90: read-out: MIC90
Protocol: as §1, §2, §3, §4, §5

C. neoformans (4) = assay: as above; format: cell-based; conditions: Cryptococcus neoformans, C. neoformans, 4 strains; for MIC50: read-out: MIC50; for MIC90: read-out: MIC90
Protocol: as §1, §2, §3, §4, §5

[1] = system: C. spp * (5) (C. parapsilosis, lusitaniae, kefyr); assay: as above; format: cell-based; conditions: Lodderomyces parapsilosis, C. parapsilosis, lusitaniae, kefyr, 5 strains; for MIC50: read-out: MIC50; for MIC90: read-out: MIC90
Protocol: as §1, §2, §3, §4, §5

C. tropicalis (2) = assay: as above; format: cell-based; conditions: Candida tropicalis; C. tropicalis, 2 strains; single value or range printed under head MIC50 MIC90; read-out: MIC
Protocol: as §1, §2, §3, §4, §5

Fusarium sp = assay: In vitro antimycotic activity against recently isolated Fusarium strains (Tables 2 and 3); format: cell-based; conditions: quantity and unit not given in Table 3
Protocol: as §1, §2, §3, §4, §5

A. niger = assay: In vitro antimycotic activity against recently isolated Aspergillus niger (Table 3); format: cell-based; conditions: A. niger strain 94-6222; quantity and unit not given in Table 3
Protocol: as §1, §2, §3, §4

B. capitatus (1) = assay: In vitro antimycotic activity, strain panel (Table 2); format: cell-based; conditions: Magnusiomyces capitatus; B. capitatus, 1 strain; single value under head MIC50 MIC90; read-out: MIC
Protocol: as §1, §2, §3, §4, §5

Trichosporon sp. (1) = assay: as above; format: cell-based; conditions: Trichosporon sp., 1 strain; single value under head MIC50 MIC90; read-out: MIC
Protocol: as §1, §2, §3, §4, §5

[2] = Candida albicans, C. albicans 1040, YNB, incubation at 35°C for 48 hours, read-out: IC50
[3] = C. neoformans, YNB, incubation at 35°C for 48 hours, read-out: IC50
[4] = T.mentagrophytes, SDB, incubation at 28°C for 7 days, read-out: MIC
[5] = A. fumigatus, SDB, incubation at 28°C for 7 days, read-out: MIC

| Structure (SMILES) | IC50 (C. albicans 1040; [2]) [µg/mL] | IC50 (C. neoformans; [3]) [µg/mL] | MIC (T.mentagrophytes; [4]) [µg/mL] | MIC (A. fumigatus; [5]) [µg/mL] | PD50 at 8th day (Candida albicans 1040) [mg/kg/os] | PD50 at 14th day (Candida albicans 1040) [mg/kg/os] | further results |
| --- | --- | --- | --- | --- | --- | --- | --- |
| CCC(C)n1ncn(-c2ccc(N3CCN(c4ccc(OCC5COC(Cn6cncn6)(c6ccc(Cl)cc6Cl)O5)cc4)CC3)cc2)c1=O (centres unmarked) [Itraconazole, reference compound] | – | – | – | – | 2.31 | >8 | MIC (C. krusei (2)): 0.03 to 0.12 µg/mL (≈ 0.0425 to 0.17 µM); MIC50 (C. albicans (7)): 0.06 µg/mL (≈ 0.085 µM); MIC90 (C. albicans (7)): 0.12 µg/mL (≈ 0.17 µM); MIC50 (C. neoformans (4)): ≤ 0.03 µg/mL; MIC90 (C. neoformans (4)): 0.1 µg/mL (≈ 0.142 µM); MIC50 [1]: ≤ 0.03 µg/mL; MIC90 [1]: 0.06 µg/mL (≈ 0.085 µM); MIC (C. tropicalis (2)): 0.1 µg/mL (≈ 0.142 µM); In vitro antimycotic activity (Fusarium sp; Fusarium sp strain 81-256): 2; In vitro antimycotic activity (Fusarium sp; Fusarium sp strain 86-3369): 2-16; In vitro antimycotic activity (Fusarium sp; Fusarium sp strain 88-2116): 2-8; In vitro antimycotic activity (Fusarium sp; Fusarium sp strain 946301): 2-16; In vitro antimycotic activity (A. niger): ≤0.03; % percentage of survival after day 3 (Candida albicans 1040; mice infected by C. albicans, dose 25 mg/kg/os, day 3): 100%; % percentage of survival after day 6 (Candida albicans 1040; mice infected by C. albicans, dose 25 mg/kg/os, day 6): 100% |
| CC(COC(F)(F)C(F)F)C(O)(Cn1cncn1)c1ccc(F)cc1F (racemic) [Compound 6, (±)-1-(1H-1,2,4-triazolyl)-2-hydroxy-2-(2.4-difluorophenyl)-3-methyl-4-(1,1,2,2-tetrafluoroethoxy)butane] | 0.0312 (≈ 0.0814 µM) | 0.0625 (≈ 0.163 µM) | 0.5 (≈ 1.3 µM) | 16 (≈ 41.7 µM) | 0.42 | 1.10 | – |
| CCC(COC(F)(F)C(F)F)C(O)(Cn1cncn1)c1ccc(F)cc1F (racemic) [Compound 7, (±)-1-(1H-1,2,4-triazolyl)-2-hydroxy-2-(2,4-difluorophenyl)-3-ethyl-4-(1,1,2,2-tetrafluoroethoxy)butane nitrate] | – | – | – | – | 1.5 | 2.19 | IC50 (C. albicans 1040; Candida albicans, 1040, 48 h): 0.0312 µg/mL; IC50 (C. neoformans; 48 h): 0.125 µg/mL; MIC (T.mentagrophytes): 0.5 µg/mL; MIC (A. fumigatus): 16 µg/mL |
| OC(Cn1cncn1)(Cn1cncn1)c1ccc(F)cc1F [Fluconazole, reference compound] | 0.5 (≈ 1.63 µM) | 2 (≈ 6.53 µM) | 16 (≈ 52.2 µM) | – | 0.125 | 0.61 | MIC (A. fumigatus): > 128 µg/mL; MIC (B. capitatus (1)): 4 µg/mL (≈ 13.1 µM); MIC50 (C. albicans (7)): 4 µg/mL (≈ 13.1 µM); MIC90 (C. albicans (7)): 32 µg/mL (≈ 104 µM); MIC50 (C. neoformans (4)): 1 µg/mL (≈ 3.27 µM); MIC90 (C. neoformans (4)): 32 µg/mL (≈ 104 µM); MIC50 [1]: 1 µg/mL (≈ 3.27 µM); MIC90 [1]: 2 µg/mL (≈ 6.53 µM); MIC (C. tropicalis (2)): 4 to 16 µg/mL (≈ 13.1 to 52.2 µM); MIC (Trichosporon sp. (1)): 32 µg/mL (≈ 104 µM) |
| CC(COC(F)(F)C(F)F)C(O)(Cn1cncn1)c1ccc(Cl)cc1 (racemic) [Compound 4, (±)-1-(1H-1,2,4-triazolyl)-2-hydroxy-2-(4-chlorophenyl)-3-methyl-4-(1,1,2,2-tetrafluoroethoxy)butane] | 0.0312 (≈ 0.0817 µM) | 0.5 (≈ 1.31 µM) | 4 (≈ 10.5 µM) | > 128 | 0.31 | 1.29 | – |

Now from value to molecule, other results behind:

| IC50 (C. albicans 1040; [2]) [µg/mL] | IC50 (C. neoformans; [3]) [µg/mL] | MIC (T.mentagrophytes; [4]) [µg/mL] | MIC (A. fumigatus; [5]) [µg/mL] | Structure (SMILES) | PD50 at 8th day (Candida albicans 1040) [mg/kg/os] | PD50 at 14th day (Candida albicans 1040) [mg/kg/os] | further results |
| --- | --- | --- | --- | --- | --- | --- | --- |
| 0.0156 (≈ 0.0427 µM) | 0.0156 (≈ 0.0427 µM) | 0.125 (≈ 0.342 µM) | 4 (≈ 10.9 µM) | CC(C)(COC(F)(F)F)C(O)(Cn1cncn1)c1ccc(F)cc1F (racemic) [Compound 12, (±)-1-(1H-1,2,4-triazolyl)-2-hydroxy-2-(2,4-difluorophenyl)-3,3-dimethyl-4-trifluoromethoxy-butane] | 1.09 | 1.39 | – |
| 0.0156 (≈ 0.0349 µM) | 0.125 (≈ 0.279 µM) | 2 (≈ 4.47 µM) | > 128 | CC(C)(COC(F)(F)C(F)C(F)(F)F)C(O)(Cn1cncn1)c1ccc(F)cc1F (racemic) [Compound 9] | 0.89 | 1.57 | – |
